From patent publication US4933347A, “Diamidines and bis(imidazolines) for the treatment of and prophylaxis against pneumocystis carinii pneumonia” (University of North Carolina at Chapel Hill, priority 1988, dated 1990)

Experiments:
[1] = Toxicity of amidines in rats (standard laboratory procedure); format: in vivo; conditions: rat, in vivo; for Toxicity of amidines: Effect: 5 mg/kg
Protocol: Compounds having the structure represented by Formula I were synthesized in accordance with the appropriate procedures discussed previously. The reaction schemes shown in Charts I-III specifically identify the methodology used to synthesize the compounds of the respective examples. The compounds which were synthesized are shown in Table IA and the elemental analysis and melting points of the compounds are shown in Table IB. Most of the compounds were tested for toxicity in rats using standard laboratory procedure and the results of that toxicity testing are shown in Table XII. The compounds of Examples 31, 32, and 34 were not synthesized but may be synthesized in the general manner discussed previously.

Pneumocystis carinii = test: Treatment of Pneumocystis carinii pneumonia in Sprague-Dawley rats (extent of disease by histologic score); format: in vivo, male Sprague-Dawley rats; conditions: for Extent of Disease by Histologic Score: number of animals with score 0.5 / Extent of Disease by Histologic Score: number of animals with score 1 / Extent of Disease by Histologic Score: number of animals with score 2 / Extent of Disease by Histologic Score: number of animals with score 3 / Extent of Disease by Histologic Score: number of animals with score 4: 14 days; for Extent of Disease by Histologic Score: number of animals with score 0.5 / Extent of disease by histologic score (combined): number of animals in scoring group 0.5: 0.5 = <10 cysts found per 2 sections; for Extent of Disease by Histologic Score: number of animals with score 1 / Extent of disease by histologic score (combined): number of animals in scoring group 1: 1 = scattered cysts, <5% of lung involved; for Extent of Disease by Histologic Score: number of animals with score 2 / Extent of disease by histologic score (combined): number of animals in scoring group 2: 2 = scattered cysts; for Extent of Disease by Histologic Score: number of animals with score 2: 5-10% lung involved or small foci of infection; for Extent of Disease by Histologic Score: number of animals with score 3 / Extent of disease by histologic score (combined): number of animals in scoring group 3: 3 = scattered cysts; for Extent of Disease by Histologic Score: number of animals with score 3: 10-50% of lung involved with some intense areas of infection; for Extent of Disease by Histologic Score: number of animals with score 4: 4 = >50% of lung involved with many intense areas of focal infection; for Extent of disease by histologic score (combined): number of animals in scoring group 0.5 / Extent of disease by histologic score (combined): number of animals in scoring group 1 / Extent of disease by histologic score (combined): number of animals in scoring group 2 / Extent of disease by histologic score (combined): number of animals in scoring group 3 / Extent of disease by histologic score (combined): number of animals in scoring group 4: Table XII composite; for Extent of disease by histologic score (combined): number of animals in scoring group 2: 5-10% of lung involved; for Extent of disease by histologic score (combined): number of animals in scoring group 3: 10-50% of lung involved; for Extent of disease by histologic score (combined): number of animals in scoring group 4: 4 = >50% of lung involved; for Efficacy in treating PCP compared with related compounds of the series: effect of chain length or substituent
Protocol: Induction and Treatment Of Pneumocystis Carinii in Sprague-Dawley Rats
Male Sprague-Dawley rats, barrier raised, non-certified virus free, weighing 150-200g were obtained from Hilltop Laboratories and housed individually. Animals were begun on a low (8%) protein diet (ICN Biomedicals, Cincinnati, OH) and drinking water containing tetracycline (0.5 mg/ml) and dexamethasone (1.0 μg/ml) immediately upon arrival. This treatment was given for the next 8 weeks, monitoring fluid intake daily and weighing animals weekly. Dilutions of the drinking solution were made when animals consumed too much fluid so as to prevent cortisone poisoning. At the beginning of the sixth week, animals were divided into groups of 8 animals each and the test compounds were administered daily by i.v. injection at a dose of 10 mg/kg, unless otherwise noted, for the next 14 days.
Animals were sacrificed at the end of the eighth week by chloroform inhalation and the left lung was removed aseptically and placed in sterile Hank's balanced salts solution without calcium or magnesium (HBSS-) for the ground tissue procedure. The right lung was inflated in situ with 10% […] and removed for histologic examination GMS staining. […]

[2] = 10 mg/kg unless otherwise noted

SMILES	Extent of Disease by Histologic Score: number of animals with score 0.5 (Pneumocystis carinii; 10 mg/kg i.v. daily) [animals]	Extent of Disease by Histologic Score: number of animals with score 1 (Pneumocystis carinii; 10 mg/kg i.v. daily) [animals]	Extent of Disease by Histologic Score: number of animals with score 2 (Pneumocystis carinii; 10 mg/kg i.v. daily) [animals]	Extent of Disease by Histologic Score: number of animals with score 3 (Pneumocystis carinii; 10 mg/kg i.v. daily) [animals]	Extent of Disease by Histologic Score: number of animals with score 4 (Pneumocystis carinii; 10 mg/kg i.v. daily) [animals]	Efficacy in treating PCP compared with pentamidine (Pneumocystis carinii; [2])	Extent of disease by histologic score (combined): number of animals in scoring group 0.5 (Pneumocystis carinii; 10 mg/kg) [animals]	Extent of disease by histologic score (combined): number of animals in scoring group 1 (Pneumocystis carinii; 10 mg/kg) [animals]	Extent of disease by histologic score (combined): number of animals in scoring group 2 (Pneumocystis carinii; 10 mg/kg) [animals]	Extent of disease by histologic score (combined): number of animals in scoring group 3 (Pneumocystis carinii; 10 mg/kg) [animals]	Extent of disease by histologic score (combined): number of animals in scoring group 4 (Pneumocystis carinii; 10 mg/kg) [animals]	other results
COc1cc(C(=N)N)ccc1OCCCOc1ccc(C(=N)N)cc1OC [Example 6]	–	–	–	–	–	–	–	–	–	–	–	Toxicity of amidines: Effect [1]: None; Extent of Disease by Histologic Score: number of animals with score 0.5 (Pneumocystis carinii; 5 mg/kg i.v. daily): 7 animals; Extent of Disease by Histologic Score: number of animals with score 1 (Pneumocystis carinii; 5 mg/kg i.v. daily): 1 animals; Extent of Disease by Histologic Score: number of animals with score 2 (Pneumocystis carinii; 5 mg/kg i.v. daily): 0 animals; Extent of Disease by Histologic Score: number of animals with score 3 (Pneumocystis carinii; 5 mg/kg i.v. daily): 0 animals; Extent of Disease by Histologic Score: number of animals with score 4 (Pneumocystis carinii; 5 mg/kg i.v. daily): 0 animals; Extent of disease by histologic score (combined): number of animals in scoring group 0.5 (Pneumocystis carinii; tested at 5 mg/kg): 7 animals; Extent of disease by histologic score (combined): number of animals in scoring group 1 (Pneumocystis carinii; tested at 5 mg/kg): 1 animals; Extent of disease by histologic score (combined): number of animals in scoring group 2 (Pneumocystis carinii; tested at 5 mg/kg): 0 animals; Extent of disease by histologic score (combined): number of animals in scoring group 3 (Pneumocystis carinii; tested at 5 mg/kg): 0 animals; Extent of disease by histologic score (combined): number of animals in scoring group 4 (Pneumocystis carinii; tested at 5 mg/kg): 0 animals; Efficacy in treating PCP compared with control (Pneumocystis carinii; compound at 5 mg/kg): significantly better, at one half the dose, than the control
N=C(N)c1ccc(NCCCCNc2ccc(C(=N)N)cc2)cc1 [Example 8]	3	1	0	0	0	better than or equal to pentamidine	3	1	0	0	0	Deaths by day 7 [1]: 3 deaths
COc1cc(C(=N)N)ccc1OCCCCOc1ccc(C(=N)N)cc1OC [Example 11]	–	–	–	–	–	–	–	–	–	–	–	Toxicity of amidines: Effect [1]: None; Extent of Disease by Histologic Score: number of animals with score 0.5 (Pneumocystis carinii; 5 mg/kg i.v. daily): 3 animals; Extent of Disease by Histologic Score: number of animals with score 1 (Pneumocystis carinii; 5 mg/kg i.v. daily): 4 animals; Extent of Disease by Histologic Score: number of animals with score 2 (Pneumocystis carinii; 5 mg/kg i.v. daily): 1 animals; Extent of Disease by Histologic Score: number of animals with score 3 (Pneumocystis carinii; 5 mg/kg i.v. daily): 0 animals; Extent of Disease by Histologic Score: number of animals with score 4 (Pneumocystis carinii; 5 mg/kg i.v. daily): 0 animals; Extent of disease by histologic score (combined): number of animals in scoring group 0.5 (Pneumocystis carinii; tested at 5 mg/kg): 3 animals; Extent of disease by histologic score (combined): number of animals in scoring group 1 (Pneumocystis carinii; tested at 5 mg/kg): 4 animals; Extent of disease by histologic score (combined): number of animals in scoring group 2 (Pneumocystis carinii; tested at 5 mg/kg): 1 animals; Extent of disease by histologic score (combined): number of animals in scoring group 3 (Pneumocystis carinii; tested at 5 mg/kg): 0 animals; Extent of disease by histologic score (combined): number of animals in scoring group 4 (Pneumocystis carinii; tested at 5 mg/kg): 0 animals; Efficacy in treating PCP compared with control (Pneumocystis carinii; compound at 5 mg/kg): significantly better, at one half the dose, than the control
c1cc(C2=NCCN2)ccc1OCCCCCOc1ccc(C2=NCCN2)cc1 [Example 30]	5	3	0	0	0	comparable to or perhaps slightly better than pentamidine	5	3	0	0	0	–
N=C(N)c1ccc(NCCNc2ccc(C(=N)N)cc2N)c(N)c1 [Example 33]	0	0	4	3	1	worse than pentamidine	0	0	4	3	1	Efficacy in treating PCP compared with control (Pneumocystis carinii; [2]): better than the control
N=C(N)c1ccc(NCCCNc2ccc(C(=N)N)cc2N)c(N)c1 [Example 36]	1	4	2	0	0	–	1	4	2	0	0	Efficacy in treating PCP compared with related compounds of the series (Pneumocystis carinii): better than the nitro substituted compounds
N=C(N)c1ccc(NCCCCNc2ccc(C(=N)N)cc2N)c(N)c1 [Example 37]	0	4	3	1	0	–	0	4	3	1	0	Efficacy in treating PCP compared with related compounds of the series (Pneumocystis carinii): better than the nitro substituted compounds
N=C(N)c1ccc(NCCCCCCNc2ccc(C(=N)N)cc2)cc1 [Example 39]	2	1	0	0	0	–	–	–	–	–	–	–
c1cc(C2=NCCN2)ccc1OCCCCOc1ccc(C2=NCCN2)cc1 [Example 40]	1	2	3	1	0	–	1	2	3	1	0	Efficacy in treating PCP compared with control (Pneumocystis carinii; [2]): significantly better than the control
